Source: ChEMBL document CHEMBL3632464, “The quorum-sensing inhibiting effects of stilbenoids and their potential structure-activity relationship” (2015)
≈ marks a conversion by molar mass, not a printed value. Calls of active or inactive are those of the source. No cut-off for these calls is given here.

Tests used:
[1] = tested on: Chromobacterium violaceum; test: Inhibition of Quorum sensing system in Chromobacterium violaceum CV026 assessed as violacein synthesis at 25 and 50 uM after 18 hrs by spectrophotometric assay
[2] = tested on: Chromobacterium violaceum; test: Inhibition of Quorum sensing system in Chromobacterium violaceum CV026 assessed as inhibition of violacein synthesis at 75 uM after 18 hrs by spectrophotometric assay
[3] = tested on: Chromobacterium violaceum; test: Antibacterial activity in Chromobacterium violaceum CV026 for 16 hrs; assay type: functional; settings: CV026, 16 h
[4] = tested on: Chromobacterium violaceum; test: Antibacterial activity in Chromobacterium violaceum CV026 at 100 ug/well by agar-well diffusion method; assay type: functional, organism-based
Pseudomonas aeruginosa [5] = test: Decrease in lasR gene expression in Pseudomonas aeruginosa PAO1 at 400 uM by RT-PCR analysis; assay type: functional, organism-based
Pseudomonas aeruginosa [6] = test: Decrease in lasI gene expression in Pseudomonas aeruginosa PAO1 at 400 uM by RT-PCR analysis relative to control; assay type: functional
[7] = tested on: Chromobacterium violaceum; test: Inhibition of Quorum sensing system in Chromobacterium violaceum CV026 assessed as inhibition of violacein synthesis at 150 uM after 18 hrs by spectrophotometric assay
Pseudomonas aeruginosa [8] = test: Decrease in rhIR gene expression in Pseudomonas aeruginosa PAO1 at 400 uM by RT-PCR analysis; assay type: functional, organism-based
[9] = tested on: Chromobacterium violaceum; test: Inhibition of Quorum sensing system in Chromobacterium violaceum CV026 assessed as inhibition of violacein synthesis at 125 uM after 18 hrs by spectrophotometric assay
Pseudomonas aeruginosa [10] = test: Antibacterial activity in Pseudomonas aeruginosa PAO1 for 16 hrs; assay type: functional; settings: PAO1, 16 h
[11] = tested on: Pseudomonas aeruginosa PAO1; test: Inhibition of Quorum sensing system in Pseudomonas aeruginosa PAO1 assessed as inhibition of swarming motility at 100 uM after 16 hrs
Pseudomonas aeruginosa [12] = test: Decrease in rhII gene expression in Pseudomonas aeruginosa PAO1 at 400 uM by RT-PCR analysis; assay type: functional, organism-based
[13] = tested on: Pseudomonas aeruginosa PAO1; test: Inhibition of Quorum sensing system in Pseudomonas aeruginosa PAO1 assessed as inhibition of pyocyanin production at 400 uM after 16 to 18 hrs by spectrophotometric assay
Pseudomonas aeruginosa [14] = test: Antibacterial activity in Pseudomonas aeruginosa PAO1 at 400 uM measured every 2 hrs for 24 hrs by microplate reader analysis; assay type: functional, organism-based
[15] = tested on: Pseudomonas aeruginosa PAO1; test: Inhibition of Quorum sensing system in Pseudomonas aeruginosa PAO1 assessed as inhibition of pyocyanin production at sub-MIC concentration after 16 to 18 hrs by spectrophotometric assay
[16] = tested on: Chromobacterium violaceum; test: Inhibition of Quorum sensing system in Chromobacterium violaceum CV026 at 1 to 4 mg/ml after 24 hrs by agar-well diffusion method
[17] = tested on: Chromobacterium violaceum; test: Inhibition of Quorum sensing system in Chromobacterium violaceum CV026 after 24 hrs by agar-well diffusion method
[18] = tested on: Chromobacterium violaceum; test: Inhibition of Quorum sensing system in Chromobacterium violaceum CV026 assessed as inhibition of violacein synthesis at 25 to 150 uM after 18 hrs by spectrophotometric assay
[19] = tested on: Chromobacterium violaceum; test: Antibacterial activity in Chromobacterium violaceum CV026 at 0.6 mg/ml by agar-well diffusion method; assay type: functional, organism-based
[20] = tested on: Chromobacterium violaceum; test: Inhibition of Quorum sensing system in Chromobacterium violaceum CV026 assessed as inhibition of violacein synthesis at >100 uM after 18 hrs by spectrophotometric assay
[21] = tested on: Chromobacterium violaceum; test: Inhibition of Quorum sensing system in Chromobacterium violaceum assessed as inhibition of violacein synthesis; settings: concentration not given here
[22] = tested on: Chromobacterium violaceum; test: Antibacterial activity in Chromobacterium violaceum CV026 at >50 ug/well by agar-well diffusion method; assay type: functional, organism-based

## Oc1cc(O)cc(/C=C/c2ccc(O)c(O)c2)c1 [PICEATANNOL]
[1]
  inhibition: inactive
[2]
  inhibition: Active
[3]
  MIC: 250 µg/mL (≈ 1020 µM)
[4]
  Activity: Active
Pseudomonas aeruginosa [5]
  inhibition: Active
Pseudomonas aeruginosa [6]
  fold change (FC): 5
[7]
  inhibition: 73%
Pseudomonas aeruginosa [8]
  inhibition: Active
[9]
  inhibition: 46%
Pseudomonas aeruginosa [10]
  MIC: > 1000 µg/mL
[11]
  inhibition: Active
Pseudomonas aeruginosa [12]
  inhibition: Active
[13]
  inhibition: 37.1%
Pseudomonas aeruginosa [14]
  Activity: inactive
[15]
  inhibition: Active
[16]
  inhibition: Active

## COc1ccc(CCc2cc(OC)c(O)c(OC)c2)cc1O
[17]
  inhibition: inactive

## Oc1cc(O)cc(/C=C/c2ccc(O)cc2O)c1 [OXYRESVERATROL]
[3]
  MIC: 250 µg/mL (≈ 1020 µM)
Pseudomonas aeruginosa [5]
  inhibition: Active
Pseudomonas aeruginosa [6]
  fold change (FC): 3
[7]
  inhibition: 86%
Pseudomonas aeruginosa [8]
  inhibition: Active
Pseudomonas aeruginosa [10]
  MIC: > 1000 µg/mL
[11]
  inhibition: Active
Pseudomonas aeruginosa [12]
  inhibition: Active
[13]
  inhibition: 50.2%
Pseudomonas aeruginosa [14]
  Activity: inactive
[15]
  inhibition: Active
[18]
  inhibition: Active
[16]
  inhibition: Active

## COc1cc2ccc3c(OC)c(O)ccc3c2c(OC)c1OC
[17]
  inhibition: inactive

## COc1c(O)cc2ccc3c(OC)c(O)ccc3c2c1OC
[17]
  inhibition: inactive

## GENTAMICIN
[19]
  Activity: Active

## COc1ccc(CCc2cc(O)cc(O)c2)cc1OC
[17]
  inhibition: inactive

## COc1cc(/C=C/c2ccc(O)cc2)cc(OC)c1
[17]
  inhibition: inactive

## COc1ccc(CCc2cc(OC)c(OC)c(OC)c2)cc1OC
[17]
  inhibition: inactive

## Oc1ccc(/C=C/c2cc(O)cc(O)c2)cc1 [RESVERATROL]
[3]
  MIC: 150 µg/mL (≈ 657 µM)
[20]
  inhibition: > 80%
Pseudomonas aeruginosa [5]
  inhibition: Active
Pseudomonas aeruginosa [6]
  fold change (FC): 2
Pseudomonas aeruginosa [8]
  inhibition: Active
Pseudomonas aeruginosa [10]
  MIC: > 1000 µg/mL
[11]
  inhibition: Active
Pseudomonas aeruginosa [12]
  inhibition: Active
[13]
  inhibition: 59.3%
Pseudomonas aeruginosa [14]
  Activity: inactive
[21]
  inhibition: 70%
[15]
  inhibition: Active
[22]
  Activity: Active
[18]
  inhibition: Active
[16]
  inhibition: Active

## COc1ccc(CCc2cc(OC)c(OC)c(OC)c2)cc1O
[17]
  inhibition: inactive
